Our source for the melting point values is a melting point compilation (Tetko et al.; mined from patent text by program, amines drawn as free bases though some values may be those of a salt).

Usually melting point stands for the temperature of the solid-liquid transition. Regarding `CC(C)NC(=NC(=O)OC(C)(C)C)N=C1NC(=O)C(=O)N1c1ccc(Cl)c(Cl)c1`, the melting point came to 227 °C. Next, `Cc1ccc2c(NCc3ccc(NC(=O)C4CCN(Cc5ccccc5)CC4)cc3)nc(N(C)C)nc2c1`: 100 °C. `N#Cc1ccc(-c2nc(N3C(=O)OCC34CC4)sc2F)cc1` gave a melting point of 222 to 224 °C. In turn, `CCOC(=O)c1ccn2c(C(=O)c3cccc(O)c3)c(-c3ccccc3)cc2c1` registered a melting point of 193 to 195 °C. Next, `c1cn2cc(-c3cnc4cc[nH]c4c3)cc(Nc3cc4n(n3)CCOC4)c2n1`: 192 to 195 °C; `O=c1ccoc2cc(O)ccc12`: 136 to 137 °C; `CCOc1c(Br)cc(C(C)(C)C)cc1C(C)(C)C`: 55 to 56 °C.

Compound `O=C(CCl)[C@H](Cc1ccccc1)N(Cc1ccccc1)Cc1ccccc1` gave a melting point of 45.8 to 46.8 °C. Under `Cc1ccc(S(=O)(=O)C(CC#Cc2ccc(Cl)cc2)C(=O)O)cc1` (stereo not given) stands 154 to 157 °C; under `CCN(CCOC)C(=O)c1cc(-c2ccccc2)c(=O)n2c1-c1cc(Cl)ccc1CN2`, 184 to 185 °C. Next, `O=C(NN1CCN(CCc2c[nH]c3ccccc23)CC1)c1ccccc1`: 227 to 229 °C; `N#Cc1cccc2c1CC(=NN)c1cccc(F)c1S2`: 203 to 206 °C. Under `CN(Sc1ccccc1)C(=O)Oc1cccc2c1OC(C)(C)C2` stands 66 °C; under `O=C(CC1CCN(CC2CC2)CC1)c1ccc(O)cc1`, 209 to 211 °C. Consider `COc1cccc(CNCc2ccc3nc(N)c4ncn(CC(C)C)c4c3c2)c1`, for which the melting point lay within 125 to 126 °C. Next, `CCCCSc1ccc(-c2cc3ccccc3[nH]2)cc1`: 189 to 191 °C; `C=CCC(C(=O)O)c1ccccc1` (stereo not given): 34 °C. Under `C[Si](C)(C)CCc1cn(-c2c(Cl)cc(C(F)(F)F)cc2Cl)nc1C#N` stands 128 to 129 °C. Next, `Cc1nnc(-c2ccc3ncn(C4CCN(C(=O)c5ccccc5)CC4)c3c2)o1`: 158 to 159 °C; `COC(=O)c1cccc2c1ccn2S(=O)(=O)c1ccc(C)cc1`: 145 to 147 °C. In turn, `O=[N+]([O-])c1ccc2oc(-c3sccc3CBr)nc2c1` came in with a melting point of 146 to 148 °C. Next, `CC(=O)NC[C@H]1CN(c2ccc(N3CCC(=C(C#N)n4ccnc4C)CC3)c(F)c2)C(=O)O1`: 204 to 206 °C; `Cc1c(-c2ccc([N+](=O)[O-])cc2)sc2c1c(=O)c(OC(C)C)cn2Cc1c(F)cccc1F`: 188 to 189 °C; `CCn1ncc2c(Cl)c(CO)cnc21`: 56 °C. Next, `Nc1cc(Cl)c(N)c2c1C(=O)c1ccccc1C2=O`: 207 to 210 °C; `CC1(C)CC(N(CCO)S(C)(=O)=O)c2cc(OCc3ccccc3)ccc2O1` (stereo not given): 78 to 80 °C. Under `CCCC1N(C)c2cccc3cccc(c23)N1C` stands 70 to 71 °C; under `CCc1oc(C(c2ccccc2)c2ccccc2)nc1CC1CCc2c(cccc2OCC(=O)O)C1` (stereo not given), 150 to 152 °C; under `c1ccc2c(N3CCCC3)nc(N3CCCC3)nc2c1`, 127 to 129 °C. Compound `CCn1c(=O)c2c(nc(/C=C/c3cc(O)c4c(c3)OCO4)n2C)n(CC)c1=O` showed a melting point of 265 to 268 °C. Next, `COc1ccc(N2CCN(c3c(C)c4c(c(OC)c3C)OC(C)C4)CC2)cc1F` (stereo not given): 120 to 122 °C.

In turn, `CCCN(CCc1c[nH]c2ccc(F)cc12)C1COc2ccc3ncccc3c2C1` (stereo not given) displayed a melting point of 67 °C. Next, `Cc1cc2nc(Cl)c3cnc(Cl)cc3n2n1`: 203 °C. Next, `O=Cc1ccc2c(c1)c1cc(C=O)ccc1n2Cc1ccccc1`: 222 to 224 °C. Under `Cc1noc(C)c1-c1nn(C(C)c2oc3ccccc3c(=O)c2-c2cccc(F)c2)c2ncnc(N)c12` (stereo not given) stands 218 to 222 °C; under `CC1(C)CN=C2C(=O)c3cc(C#N)ccc3N2C1`, 178 to 184 °C; under `N#Cc1ncc(Sc2ccccc2)nc1C#N`, 109 to 112 °C. For the compound `CC(C)(C)c1cc(O)no1`, the melting point fell in the range of 99 to 101 °C. Under `CSC1=Nc2ccccc2Cc2nccn21` stands 200 to 201 °C; under `Cc1cccc(-c2ccc3c(C(N)=O)nn(-c4ccc(S(N)(=O)=O)cc4)c3c2)c1`, 261 to 263 °C; under `COC(=O)c1ccc(NCc2cccc(F)c2)cc1`, 107 to 110 °C. `O=C([C@@H]1CSCN1C(=O)c1ccncc1)N1CCSC1` yielded a melting point of 120 to 123 °C. Under `CN(Cc1ccccc1)C(=O)CCC(=O)c1ccc(Cl)c(S(N)(=O)=O)c1` stands 162 °C. Under `CN1C(NCc2ccccc2)=Nc2ccncc2S1(=O)=O` stands 142 to 146 °C; under `COc1ccc(-c2cnc3cc(OC)c(OC)cc3c2)cn1`, 170 to 172 °C. Under `CCOC(=O)c1ncn2c1[C@@H]1CCCN1C(=O)c1cc([N+](=O)[O-])ccc1-2` stands 191 to 193 °C; under `CC1=C(/C=C/S(=O)(=O)NC(C)C)C(c2cccc([N+](=O)[O-])c2)C(C(=O)OCC(F)(F)F)=C(C)N1` (stereo not given), 180 to 182 °C. Take `CCOC(=O)c1cc2ccccc2nn1`: the melting point fell in the range of 158 to 160 °C. Under `CNC(=O)N(OC(=O)OC)c1ccc(Cl)cc1` stands 145 to 146 °C; under `CCOC(=O)C1=C(C)NC(C=O)=C(C(=O)OCC)C1c1ccccc1Cl` (stereo not given), 87 to 88 °C; under `COc1ccc(C2Sc3ccccc3N(CC(N)=O)C(=O)C2NC(=O)c2ccc3ccccc3c2)cc1` (stereo not given), 243 to 245 °C. Under `CC(C)(C)OC(=O)Nc1ccc(O)c(C(=O)O)c1` stands over 270 °C; under `CC(C)(C)OC(=O)CO/N=C/c1cccc([N+](=O)[O-])c1`, 110 °C.

In turn, `O=[N+]([O-])c1ccc2c(C3=CCN(CCCOc4cccc5[nH]ccc45)CC3)c[nH]c2c1` registered a melting point of 215 to 225 °C. Next, `Cc1cccc2c1nc(-c1c(F)cccc1F)n2Cc1ccccc1`: 112 to 117 °C; `CN1CCc2c(cccc2NC(=O)c2ccccc2F)C1`: 112 °C. The compound `CN(C)C(=O)C(C#N)=C(OC(=O)c1ccc(Cl)cc1[N+](=O)[O-])c1ccc(Cl)cc1[N+](=O)[O-]` yielded a melting point of 137 to 146 °C.

For `CCCCCc1c(C(C)C)cc(C(C)C)c(C(C)O)c1-c1ccc(F)cc1` (stereo not given), the melting point is 126 °C. Under `CCC(=O)Nc1cnc2ccccc2c1Cl` stands 151 to 152 °C.

`Nc1ncnc2c1nnn2C1CCC(O)C1O` (stereo not given): the melting point was in the range of 244 to 245 °C. Next, `N#CCCC(C=O)(c1ccccc1)c1ccccc1`: 80 to 82 °C; `O=C(NC(c1ccccc1)(c1ccccc1)c1ccccc1)c1ccccc1`: 200 to 202 °C. Under `NCC(O)CN1CCC(C2(c3ccc(F)cc3)OCCO2)CC1` (stereo not given) stands 132 to 136 °C. With `Cn1c(=O)c2c(ncn2COC(=O)C(C)(C)C)n(C)c1=O`, the melting point was in the range of 108 to 110 °C.

Compound `COc1cccc(N(C)C(=S)Oc2ccc3c(c2)CCCC3)n1` showed a melting point of 99 to 100 °C.
